In the NIST ThermoML archive (doi:10.1021/acs.jced.8b00614):
± gives the expanded uncertainty stated by the source.

Assays:
[1] = Liquid; for mass density: 298.2 K, 101.33 kPa, Vibrating tube method; for vapor or sublimation pressure: Chromatography
[2] = Boiling temperature at pressure P; settings: Liquid, Ebulliometric method (Recirculating still)
[3] = refractive index (Na D-line) (dimensionless); settings: 298.2 K; 101.33 kPa; Liquid; Standard Abbe refractometry

COC(C)(C)C [2-methoxy-2-methylpropane]
Settings | mass density [kg/m3] | refractive index
[1] | 735.38 ± 3.2 | –
[3] | – | 1.36632 ± 0.0036

Settings | Boiling temperature at pressure P [°C] | vapor or sublimation pressure [kPa]
[1], 307.2 K | – | 47.7 ± 3.7
[1], 317.2 K | – | 68.9 ± 5.3
[1], 327.2 K | – | 97.1 ± 7.5
[2], 20 kPa | 13.0 ± 0.2 | –
[2], 30 kPa | 22.2 ± 0.2 | –
[2], 40 kPa | 29.5 ± 0.1 | –
[2], 50 kPa | 35.2 ± 0.1 | –
[2], 60 kPa | 40.2 ± 0.1 | –
[2], 70 kPa | 44.5 ± 0.1 | –
[2], 79.9 kPa | 48.4 ± 0.1 | –
[2], 90 kPa | 51.8 ± 1.5 | –
[2], 99.7 kPa | 55.0 ± 1.5 | –

CC(C)CC(C)(C)C [2,2,4-trimethylpentane]
Settings | mass density [kg/m3] | refractive index
[1] | 687.73 ± 3.2 | –
[3] | – | 1.3891 ± 0.0036

Settings | Boiling temperature at pressure P [°C] | vapor or sublimation pressure [kPa]
[1], 307.2 K | – | 10 ± 0.8
[1], 317.2 K | – | 15.3 ± 1.2
[1], 327.2 K | – | 22.8 ± 1.8
[1], 350.2 K | – | 51.6 ± 4
[1], 360.2 K | – | 70.7 ± 5.5
[1], 370.2 K | – | 95 ± 7.4
[2], 5 kPa | 19.4 ± 0.4 | –
[2], 10 kPa | 34.0 ± 0.3 | –
[2], 20 kPa | 50.7 ± 0.2 | –
[2], 30 kPa | 61.4 ± 0.2 | –
[2], 40 kPa | 69.5 ± 0.2 | –
[2], 50 kPa | 76.1 ± 0.1 | –
[2], 60 kPa | 81.8 ± 0.1 | –
[2], 70 kPa | 86.7 ± 0.1 | –
[2], 80 kPa | 91.1 ± 0.1 | –
[2], 90 kPa | 95.2 ± 0.1 | –
[2], 99.7 kPa | 98.8 ± 0.1 | –

CCCCCO [pentan-1-ol]
Settings | mass density [kg/m3] | refractive index
[1] | 810.9 ± 3.2 | –
[3] | – | 1.40764 ± 0.0036

Settings | Boiling temperature at pressure P [°C] | vapor or sublimation pressure [kPa]
[1], 317.2 K | – | 1.1 ± 0.1
[1], 327.2 K | – | 2.1 ± 0.2
[1], 350.2 K | – | 8 ± 0.6
[1], 360.2 K | – | 13.3 ± 1
[1], 370.2 K | – | 21 ± 1.6
[2], 1.1 kPa | 44.2 ± 0.9 | –
[2], 5 kPa | 68.2 ± 0.6 | –
[2], 10 kPa | 81.4 ± 0.3 | –
[2], 20 kPa | 96 ± 0.2 | –
[2], 30 kPa | 105.2 ± 0.2 | –
[2], 40 kPa | 112.4 ± 0.1 | –
[2], 50 kPa | 118.2 ± 0.1 | –
[2], 60 kPa | 123.1 ± 0.1 | –
[2], 70 kPa | 127.2 ± 0.1 | –
[2], 79.9 kPa | 131.1 ± 0.1 | –
[2], 90 kPa | 134.6 ± 1.5 | –
[2], 99.7 kPa | 137.7 ± 1.5 | –
